# Source: patent US6951881B2, “(1-substituted-indol-3-yl) alkylidenehydrazinecarboximidamide derivatives as 5-hydroxytryptamine-6 ligands” (Wyeth, priority 2002, dated 2005)
# pKi: −log10 of the molar value.
# Target: T1, human cloned 5-HT6 receptors (Homo sapiens, UniProt P50406)
# T1 construct: expressed in transfected cells; host or cells: HeLa cells
# Format: binding
# Settings: [3H]-LSD 3.0 nM, Hela cell membranes; read-out: 5-HT6 Binding Ki
# T1 sequence (P50406 whole entry): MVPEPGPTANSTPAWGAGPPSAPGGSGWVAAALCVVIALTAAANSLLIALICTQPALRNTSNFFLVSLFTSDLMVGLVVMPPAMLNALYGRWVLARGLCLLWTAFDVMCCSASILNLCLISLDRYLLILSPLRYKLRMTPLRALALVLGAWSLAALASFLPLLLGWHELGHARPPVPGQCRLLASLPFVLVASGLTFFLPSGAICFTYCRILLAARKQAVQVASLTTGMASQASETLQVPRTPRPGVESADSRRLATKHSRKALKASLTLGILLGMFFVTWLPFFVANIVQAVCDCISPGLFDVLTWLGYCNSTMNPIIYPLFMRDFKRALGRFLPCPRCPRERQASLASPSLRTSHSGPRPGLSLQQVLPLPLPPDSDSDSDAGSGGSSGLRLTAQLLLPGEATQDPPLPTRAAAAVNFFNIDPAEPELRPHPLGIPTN
row,pKi,SMILES
1,7.72,"CC(=NNC(=N)N)c1c(-c2ccccc2)n(C)c2ccccc12 [Example 86, 2-[1-(1-methyl-2-phenyl-1H-indol-3-yl)-ethylidene]hydrazinecarboximidamide]"

# Same assay, conditions: test compound dose 100 nM; displacement of [3H]-LSD; read-out: % Inhibition
row,inhibition at 0.1 µM,SMILES
1,25.5%,"Cc1ccc2[nH]c3c(c2c1)C(=NN(C)C1=NCCN1)CC(C)(C)C3 [Example 174, 2,2,6-trimethyl-1,2,3,9-tetrahydro-4H-carbazol-4-one 4,5-dihydro-1H-imidazol-2-yl(methyl)-hydrazone]"
2,57.2%,"Cc1ccc2[nH]c3c(c2c1)C(=NNC(=N)N)CCC3 [Example 165, 2-(6-methyl-1,2,3,9-tetrahydro-4H-carbazol-4-ylidene)hydrazinecarboximidamide]"
3,30.7%,"CC1(C)CC(=NNC(=N)N)c2c([nH]c3ccc(Cl)cc23)C1 [Example 171, 2-(6-chloro-2,2-dimethyl-1,2,3,9-tetrahydro-4H-carbazol-4-ylidene)hydrazinecarboximidamide]"
4,11.5%,"CN(N=C1CC(c2ccccc2)Cc2[nH]c3ccc(F)cc3c21)C1=NCCN1 (stereo not shown) [Example 180, 6-fluoro-2-phenyl-1,2,3,9-tetrahydro-4H-carbazol-4-one 4,5-dihydro-1H-imidazol-2-yl(methyl)-hydrazone]"

# Same assay, conditions: test compound dose 1000 nM; displacement of [3H]-LSD
SMILES,inhibition at 1 µM,% Inhibition
"CN=C(NN=Cc1c(-c2ccc(Cl)cc2)[nH]c2ccccc12)NC1CCCC1 [Example 116, 2-{[2-(4-chlorophenyl)-1H-indol-3-yl]methylidene}-N-cyclopentyl-N′-methyl-1hydrazinecarboximidamide]",59.5%,–
"CC(=NNC(=N)N)c1c(-c2ccccc2)n(C)c2ccccc12 [Example 86, 2-[1-(1-methyl-2-phenyl-1H-indol-3-yl)-ethylidene]hydrazinecarboximidamide]",99.4%,–
"N=C(N)NN=Cc1c(-c2ccc(Cl)cc2)n(Cc2ccccc2Cl)c2ccccc12 [Example 96, 2-{[1-(2-chloro-benzyl)-2-(4-chloro-phenyl)-1H-indol-3-yl]-methylene}hydrazinecarboximidamide]",15.6%,–
"CN(N=C1CCCc2[nH]c3ccc(Br)cc3c21)C1=NCCN1 [Example 160, 6-bromo-1,2,3,9-tetrahydro-4H-carbazol-4-one 4,5-dihydro-1H-imidazol-2-yl(methyl)hydrazone]",76%,–
"CC(C)C(=NNC(=N)N)c1c(-c2ccc(Cl)cc2)[nH]c2ccccc12 [Example 57, 2-{[2-(4-chloro-phenyl)-1H-indol-3-yl]-2-methyl-propylidene}hydrazinecarboximidamide]",–,74.6%
"CC(=NNC(=N)N)c1c(-c2ccccc2)n(CCc2ccccc2)c2ccccc12 [Example 78, 2-{[1-(2-Phenethyl)-2-phenyl-1H-indol-3-yl]ethylidene}hydrazine-carboximidamide]",–,84.2%

# Second part, led by results:
inhibition at 1 µM,SMILES,% Inhibition
86%,"CCCNC(=N)NN=Cc1c(-c2ccc(Cl)cc2)[nH]c2ccccc12 [Example 119, 2-{[2-(4-chlorophenyl)-1H-indol-3-yl]methylidene}-N-propyl-1hydrazinecarboximidamide]",–
68.5%,"Clc1ccc(-c2[nH]c3ccccc3c2C=NNC2=NCCCN2)cc1 [Example 45, N-[2-(4-chlorophenyl)-1H-indol-3-ylmethylene]-N′-(1,4,5,6-tetrahydropyrimidin-2-yl)hydrazine]",–
33.9%,"CN(N=C(CCc1ccccc1)c1c(-c2ccc(Cl)cc2)[nH]c2ccccc12)C1=NCCN1 [Example 70, N′-{1-[2-(4-chloro-phenyl)-1H-indol-3-yl]-3-phenyl-propylidene}-N-(4,5-dihydro-1H-imidazol-2-yl)-N-methylhydrazine]",–
56.2%,"CN=C(NCc1ccccc1)NN=Cc1c(-c2ccc(Cl)cc2)[nH]c2ccccc12 [Example 118, 2-{[2-(4-chlorophenyl)-1H-indol-3-yl]methylidene}-N-benzyl-N′-methyl-1hydrazinecarboximidamide]",–
17.8%,"CN(N=Cc1c(-c2ccccc2)n(-c2ccccc2)c2ccccc12)C1=NCCN1 [Example 92, N-(4,5-dihydro-1H-imidazol-2-yl)-N′-[(1,2-diphenyl-1H-indol-3-yl)-methylene]-N-methylhydrazine]",–
